Reference: publication PMC5218480 (PLoS ONE, 2017)

Test system: MV-4-11 cells
Test: Gene expression microarray analysis (Affymetrix PrimeView) and GSEA
Type: cell-based, human
Design: RFU PODN (11730768_x_at) / Fold change /veh PODN (11730768_x_at) / RFU LINC00158 (11744669_a_at) / Fold change /veh LINC00158 (11744669_a_at) / RFU DUSP10 (11751237_a_at) / Fold change /veh DUSP10 (11751237_a_at) / RFU ID3 (11757404_x_at) / Fold change /veh ID3 (11757404_x_at) / RFU PLEKHG5 (11737974_s_at) / Fold change /veh PLEKHG5 (11737974_s_at) / RFU LRRC4B (11730491_at) / Fold change /veh LRRC4B (11730491_at) / RFU GIMAP4 (11747438_a_at) / Fold change /veh GIMAP4 (11747438_a_at) / RFU KRT8 (11758183_x_at) / Fold change /veh KRT8 (11758183_x_at) / RFU CNN1 (11734310_a_at) / Fold change /veh CNN1 (11734310_a_at) / RFU VPS37D (11726825_at) / Fold change /veh VPS37D (11726825_at) / RFU C10orf10 (11716522_x_at) / Fold change /veh C10orf10 (11716522_x_at) / RFU KIR2DL2 /// KIR2DL4 /// KIR2DL5A /// KIR2DL5B /// KIR2DS1 /// KIR2DS2 /// KIR2DS3 /// KIR2DS4 /// KIR3DL3 /// KIR3DL3 /// KIR3DS1 (11738374_at) / Fold change /veh KIR2DL2 /// KIR2DL4 /// KIR2DL5A /// KIR2DL5B /// KIR2DS1 /// KIR2DS2 /// KIR2DS3 /// KIR2DS4 /// KIR3DL3 /// KIR3DL3 /// KIR3DS1 (11738374_at) / RFU C1QL1 (11718748_at) / Fold change /veh C1QL1 (11718748_at) / RFU TMPRSS4 (11747572_a_at) / Fold change /veh TMPRSS4 (11747572_a_at) / RFU HAMP (11756126_x_at) / Fold change /veh HAMP (11756126_x_at) / RFU RNFT2 (11725882_a_at) / Fold change /veh RNFT2 (11725882_a_at) / RFU NR4A2 (11747474_a_at) / Fold change /veh NR4A2 (11747474_a_at) / RFU ABCC12 (11746883_a_at) / Fold change /veh ABCC12 (11746883_a_at) / RFU TMEM136 (11760407_x_at) / Fold change /veh TMEM136 (11760407_x_at) / RFU CLDN22 /// WWC2 (11732394_at) / Fold change /veh CLDN22 /// WWC2 (11732394_at) / RFU HLA-DPB1 (11760878_x_at) / Fold change /veh HLA-DPB1 (11760878_x_at) / RFU SPINT1 (11716480_a_at) / Fold change /veh SPINT1 (11716480_a_at) / RFU GAP43 (11754022_s_at) / Fold change /veh GAP43 (11754022_s_at) / RFU A4GNT (11735810_at) / Fold change /veh A4GNT (11735810_at) / RFU PRB3 (11715151_x_at) / Fold change /veh PRB3 (11715151_x_at) / RFU TUBB4B (11761932_at) / Fold change /veh TUBB4B (11761932_at) / RFU CAPN14 (11732068_a_at) / Fold change /veh CAPN14 (11732068_a_at) / RFU TMCC2 (11721928_a_at) / Fold change /veh TMCC2 (11721928_a_at) / RFU IRGQ (11745062_a_at) / Fold change /veh IRGQ (11745062_a_at) / RFU FAM174B (11720279_a_at) / Fold change /veh FAM174B (11720279_a_at) / RFU TMPRSS4 (11748680_a_at) / Fold change /veh TMPRSS4 (11748680_a_at) / RFU FAM212B (11763350_a_at) / Fold change /veh FAM212B (11763350_a_at) / RFU PLEKHG5 (11743358_a_at) / Fold change /veh PLEKHG5 (11743358_a_at) / RFU ZSCAN30 (11745921_a_at) / Fold change /veh ZSCAN30 (11745921_a_at) / RFU CMKLR1 (11741424_a_at) / Fold change /veh CMKLR1 (11741424_a_at) / RFU LOC101060620 /// MAPK8IP1 (11723275_at) / Fold change /veh LOC101060620 /// MAPK8IP1 (11723275_at) / RFU SPTSSB (11747773_x_at) / Fold change /veh SPTSSB (11747773_x_at) / RFU PRSS12 (11739890_at) / Fold change /veh PRSS12 (11739890_at) / RFU BIN1 (11741810_x_at) / Fold change /veh BIN1 (11741810_x_at) / RFU WNT11 (11732464_a_at) / Fold change /veh WNT11 (11732464_a_at) / RFU C10orf10 (11716521_a_at) / Fold change /veh C10orf10 (11716521_a_at) / RFU C5orf56 (11738089_at) / Fold change /veh C5orf56 (11738089_at) / RFU CYB561 (11721691_x_at) / Fold change /veh CYB561 (11721691_x_at) / RFU ANKRD19P (11752326_a_at) / Fold change /veh ANKRD19P (11752326_a_at) / RFU OR2T12 /// OR2T33 /// OR2T8 (11738714_s_at) / Fold change /veh OR2T12 /// OR2T33 /// OR2T8 (11738714_s_at) / RFU VCAN (11748164_a_at) / Fold change /veh VCAN (11748164_a_at) / RFU JSRP1 (11732532_at) / Fold change /veh JSRP1 (11732532_at) / RFU KRTAP10-11 (11738290_x_at) / Fold change /veh KRTAP10-11 (11738290_x_at) / RFU MYO3A (11730013_a_at) / Fold change /veh MYO3A (11730013_a_at) / RFU EBF3 (11725865_a_at) / Fold change /veh EBF3 (11725865_a_at) / RFU CAMK2N1 (11719241_x_at) / Fold change /veh CAMK2N1 (11719241_x_at) / RFU C5orf56 (11738088_a_at) / Fold change /veh C5orf56 (11738088_a_at) / RFU OLFML3 (11715873_a_at) / Fold change /veh OLFML3 (11715873_a_at) / RFU LOC100653217 /// NTM (11731650_a_at) / Fold change /veh LOC100653217 /// NTM (11731650_a_at) / RFU MAPK11 (11762145_a_at) / Fold change /veh MAPK11 (11762145_a_at) / RFU FIZ1 (11724087_x_at) / Fold change /veh FIZ1 (11724087_x_at) / RFU OASL (11726364_x_at) / Fold change /veh OASL (11726364_x_at) / RFU SOX15 (11748057_x_at) / Fold change /veh SOX15 (11748057_x_at) / RFU CD79A (11719716_a_at) / Fold change /veh CD79A (11719716_a_at) / RFU HIST1H1D (11736915_at) / Fold change /veh HIST1H1D (11736915_at) / RFU CASKIN2 (11723855_a_at) / Fold change /veh CASKIN2 (11723855_a_at) / RFU LOC730098 (11760151_x_at) / Fold change /veh LOC730098 (11760151_x_at) / RFU OR4N2 (11742367_at) / Fold change /veh OR4N2 (11742367_at) / RFU PRRT2 (11749266_a_at) / Fold change /veh PRRT2 (11749266_a_at) / RFU SNX32 (11753110_a_at) / Fold change /veh SNX32 (11753110_a_at) / RFU CDHR5 (11726645_a_at) / Fold change /veh CDHR5 (11726645_a_at) / RFU RCAN1 (11760418_a_at) / Fold change /veh RCAN1 (11760418_a_at) / RFU FAM167A (11723789_a_at) / Fold change /veh FAM167A (11723789_a_at) / RFU FAM26E (11764081_at) / Fold change /veh FAM26E (11764081_at) / RFU ISYNA1 (11749810_s_at) / Fold change /veh ISYNA1 (11749810_s_at) / RFU ACY1 (11761880_at) / Fold change /veh ACY1 (11761880_at) / RFU 11764098_at / Fold change /veh 11764098_at / RFU SAMD14 (11745864_x_at) / Fold change /veh SAMD14 (11745864_x_at) / RFU NPB (11741838_a_at) / Fold change /veh NPB (11741838_a_at) / RFU TMPRSS6 (11731388_a_at) / Fold change /veh TMPRSS6 (11731388_a_at) / RFU KRTAP10-2 (11738614_at) / Fold change /veh KRTAP10-2 (11738614_at) / RFU ARHGAP8 /// PRR5-ARHGAP8 (11727945_x_at) / Fold change /veh ARHGAP8 /// PRR5-ARHGAP8 (11727945_x_at) / RFU KRTAP5-7 /// NADSYN1 (11734609_at) / Fold change /veh KRTAP5-7 /// NADSYN1 (11734609_at) / RFU RASL12 (11751679_a_at) / Fold change /veh RASL12 (11751679_a_at) / RFU CDKN2B (11736163_a_at) / Fold change /veh CDKN2B (11736163_a_at) / RFU PRF1 (11729649_at) / Fold change /veh PRF1 (11729649_at) / RFU, ZNF638 /// ZNF638-IT1 / Fold change vs veh, ZNF638 /// ZNF638-IT1 / RFU, PANK3 / Fold change vs veh, PANK3 / RFU, SH3YL1 / Fold change vs veh, SH3YL1 / RFU, ZEB2 / Fold change vs veh, ZEB2 / RFU, NRIP1 / Fold change vs veh, NRIP1 / RFU, PTTG1IP / Fold change vs veh, PTTG1IP / RFU, CAPN2 / Fold change vs veh, CAPN2 / RFU, MED14 / Fold change vs veh, MED14 / RFU, SNORA58 / Fold change vs veh, SNORA58 / RFU, C1orf63 / Fold change vs veh, C1orf63 / RFU, LRRFIP1 / Fold change vs veh, LRRFIP1 / RFU, NDUFAF7 / Fold change vs veh, NDUFAF7 / RFU, SLC12A2 / Fold change vs veh, SLC12A2 / RFU, IBTK / Fold change vs veh, IBTK / RFU, ESF1 / Fold change vs veh, ESF1 / Fold change vs veh, TMEM50B / RFU, TAOK1 / Fold change vs veh, TAOK1 / RFU, ACBD3 / Fold change vs veh, ACBD3 / RFU, TMA16 / Fold change vs veh, TMA16 / RFU, RWDD3 / Fold change vs veh, RWDD3 / RFU, BCAT1 / Fold change vs veh, BCAT1 / RFU, EDEM3 / Fold change vs veh, EDEM3 / RFU, TMEM33 / Fold change vs veh, TMEM33 / RFU, WDR75 / Fold change vs veh, WDR75 / RFU, AHCTF1 / Fold change vs veh, AHCTF1 / RFU, TFRC / Fold change vs veh, TFRC / RFU, ZDHHC17 / Fold change vs veh, ZDHHC17 / RFU, NOM1 / Fold change vs veh, NOM1 / RFU, ARL8B / Fold change vs veh, ARL8B / RFU, ZBTB11 / Fold change vs veh, ZBTB11 / RFU, TAMM41 / Fold change vs veh, TAMM41 / RFU, KIAA1704 /// LOC100996395 / Fold change vs veh, KIAA1704 /// LOC100996395 / RFU, ING1 / Fold change vs veh, ING1 / RFU, TRMT61B / Fold change vs veh, TRMT61B / RFU, FUBP3 / Fold change vs veh, FUBP3 / RFU, TP53 / Fold change vs veh, TP53 / RFU, TNKS2 / Fold change vs veh, TNKS2 / RFU, ZFP14 / Fold change vs veh, ZFP14 / RFU, ACTR2 / Fold change vs veh, ACTR2 / RFU, PPP3R1 / Fold change vs veh, PPP3R1 / RFU, PIK3R1 / Fold change vs veh, PIK3R1 / RFU, HNRNPA1 / Fold change vs veh, HNRNPA1 / RFU, RNF170 / Fold change vs veh, RNF170 / RFU, ZNF28 / Fold change vs veh, ZNF28 / RFU, RNGTT / Fold change vs veh, RNGTT / RFU, OGT / Fold change vs veh, OGT / RFU, BRD1 / Fold change vs veh, BRD1 / RFU, MARS / Fold change vs veh, MARS / RFU, ZNF655 / Fold change vs veh, ZNF655 / RFU, FAHD1 / Fold change vs veh, FAHD1 / RFU, BDP1 / Fold change vs veh, BDP1 / RFU, LRRCC1 / Fold change vs veh, LRRCC1 / RFU, ARID1A / Fold change vs veh, ARID1A / RFU, ZNF146 / Fold change vs veh, ZNF146 / RFU, ZNF330 / Fold change vs veh, ZNF330 / RFU, GPN3 / Fold change vs veh, GPN3 / RFU, C9orf123 / Fold change vs veh, C9orf123 / RFU, N4BP2L2 / Fold change vs veh, N4BP2L2 / RFU, ARFIP1 / Fold change vs veh, ARFIP1 / RFU, FAM179B / Fold change vs veh, FAM179B / RFU, BCL10 / Fold change vs veh, BCL10 / RFU, UHRF1BP1L / Fold change vs veh, UHRF1BP1L / RFU, BET1 / Fold change vs veh, BET1 / RFU, CNOT2 / Fold change vs veh, CNOT2 / RFU, ZNF268 / Fold change vs veh, ZNF268 / Fold change vs veh, ZNF507 / RFU, DGCR2 / Fold change vs veh, DGCR2 / RFU, WDSUB1 / Fold change vs veh, WDSUB1 / Fold change vs veh, HSP90B1 /// MIR3652 / RFU, ADSS / Fold change vs veh, ADSS / RFU, GK / Fold change vs veh, GK / RFU, ZNF148 / Fold change vs veh, ZNF148 / RFU, TAF9 / Fold change vs veh, TAF9 / RFU, SLC1A5 / Fold change vs veh, SLC1A5 / RFU, SLMO2 / Fold change vs veh, SLMO2 / RFU, ABCC4 / Fold change vs veh, ABCC4 / RFU, LOC101060439 /// RAP1B / Fold change vs veh, LOC101060439 /// RAP1B / RFU, RFX7 / Fold change vs veh, RFX7 / RFU, GTPBP10 / Fold change vs veh, GTPBP10 / RFU, CNEP1R1 / Fold change vs veh, CNEP1R1 / RFU, BIVM-ERCC5 /// ERCC5 / Fold change vs veh, BIVM-ERCC5 /// ERCC5 / RFU, ILF3 / Fold change vs veh, ILF3 / RFU 11762660_at / Fold change /veh 11762660_at / RFU VCAN (11757783_s_at) / Fold change /veh VCAN (11757783_s_at) / RFU DDX43 (11728927_at) / Fold change /veh DDX43 (11728927_at) / RFU KRT8 (11758188_x_at) / Fold change /veh KRT8 (11758188_x_at) / RFU NKD1 (11759106_at) / Fold change /veh NKD1 (11759106_at) / RFU SRD5A1 (11742802_a_at) / Fold change /veh SRD5A1 (11742802_a_at) / RFU TPSAB1 /// TPSB2 (11721975_s_at) / Fold change /veh TPSAB1 /// TPSB2 (11721975_s_at) / RFU GSTM3 (11746129_a_at) / Fold change /veh GSTM3 (11746129_a_at) / RFU IL23R (11737362_x_at) / Fold change /veh IL23R (11737362_x_at) / RFU TMEM51 (11727254_a_at) / Fold change /veh TMEM51 (11727254_a_at) / RFU PIWIL2 (11732686_x_at) / Fold change /veh PIWIL2 (11732686_x_at) / RFU ORM1 (11744905_x_at) / Fold change /veh ORM1 (11744905_x_at) / RFU CCDC152 (11743942_at) / Fold change /veh CCDC152 (11743942_at) / RFU ECM1 (11717891_a_at) / Fold change /veh ECM1 (11717891_a_at) / RFU IL23R (11748794_a_at) / Fold change /veh IL23R (11748794_a_at) / RFU TNFAIP8L3 (11732012_x_at) / Fold change /veh TNFAIP8L3 (11732012_x_at) / RFU MBOAT4 (11741988_at) / Fold change /veh MBOAT4 (11741988_at) / RFU 11764193_at / Fold change /veh 11764193_at / RFU TMEM53 (11763286_at) / Fold change /veh TMEM53 (11763286_at) / RFU MAGEB2 (11727129_at) / Fold change /veh MAGEB2 (11727129_at) / RFU TMEM200A (11744735_a_at) / Fold change /veh TMEM200A (11744735_a_at) / RFU CCDC152 (11751479_a_at) / Fold change /veh CCDC152 (11751479_a_at) / RFU FAM211A (11726209_a_at) / Fold change /veh FAM211A (11726209_a_at) / RFU RGS16 (11746705_a_at) / Fold change /veh RGS16 (11746705_a_at) / RFU VCAN (11755009_s_at) / Fold change /veh VCAN (11755009_s_at) / RFU RHOB (11743442_s_at) / Fold change /veh RHOB (11743442_s_at) / RFU RGS16 (11720943_a_at) / Fold change /veh RGS16 (11720943_a_at) / RFU RGS16 (11720944_at) / Fold change /veh RGS16 (11720944_at) / RFU, VPS4B / Fold change vs veh, VPS4B / RFU, CREB1 / Fold change vs veh, CREB1 / RFU, DNAJC13 / Fold change vs veh, DNAJC13 / RFU, GNAQ / Fold change vs veh, GNAQ / RFU, CDK5R1 / Fold change vs veh, CDK5R1 / RFU, ZRANB3 / Fold change vs veh, ZRANB3 / RFU, CUL4A / Fold change vs veh, CUL4A / RFU, CCNY / Fold change vs veh, CCNY / RFU, UFL1 / Fold change vs veh, UFL1 / RFU, COG3 / Fold change vs veh, COG3 / RFU, DIAPH2 / Fold change vs veh, DIAPH2 / RFU, SKA2 / Fold change vs veh, SKA2 / RFU, AFF3 / Fold change vs veh, AFF3 / RFU, LMF1 / Fold change vs veh, LMF1 / RFU, IPO11 / Fold change vs veh, IPO11 / RFU, DFFB / Fold change vs veh, DFFB / RFU, FOXP1 / Fold change vs veh, FOXP1 / RFU, CARD8 / Fold change vs veh, CARD8 / RFU, STRN3 / Fold change vs veh, STRN3 / RFU, ADK / Fold change vs veh, ADK / RFU, RASSF2 / Fold change vs veh, RASSF2 / RFU, WIPF1 / Fold change vs veh, WIPF1 / RFU, LARP1B / Fold change vs veh, LARP1B / RFU, RASA1 / Fold change vs veh, RASA1 / RFU, RB1 / Fold change vs veh, RB1 / RFU, PPFIA1 / Fold change vs veh, PPFIA1 / RFU, MAT2A / Fold change vs veh, MAT2A / RFU, CCT5 / Fold change vs veh, CCT5 / RFU, WDR92 / Fold change vs veh, WDR92 / RFU, CUX1 / Fold change vs veh, CUX1 / RFU, TTC7A / Fold change vs veh, TTC7A / RFU, TMEM135 / Fold change vs veh, TMEM135 / RFU, DEPTOR / Fold change vs veh, DEPTOR / RFU, CPM / Fold change vs veh, CPM / RFU, DNAJB6 / Fold change vs veh, DNAJB6 / RFU, CACNA2D3 / Fold change vs veh, CACNA2D3 / RFU, DTX4 / Fold change vs veh, DTX4 / RFU, TFCP2 / Fold change vs veh, TFCP2 / RFU, GMCL1 /// GMCL1P1 / Fold change vs veh, GMCL1 /// GMCL1P1 / RFU, AEBP2 / Fold change vs veh, AEBP2 / RFU, SNHG1 /// SNORD22 /// SNORD25 /// SNORD26 /// SNORD27 /// SNORD28 /// SNORD29 /// SNORD31 / Fold change vs veh, SNHG1 /// SNORD22 /// SNORD25 /// SNORD26 /// SNORD27 /// SNORD28 /// SNORD29 /// SNORD31 / Fold change (Aza/veh), C12orf56 (ProbeSet 11735607_a_at) / Fold change (ACY-1035/veh), C12orf56 (ProbeSet 11735607_a_at) / Fold change (Aza/veh), FGFR1OP (ProbeSet 11751329_s_at) / Fold change (ACY-1035/veh), FGFR1OP (ProbeSet 11751329_s_at) / Fold change (Aza/veh), VPS36 (ProbeSet 11739960_a_at) / Fold change (ACY-1035/veh), VPS36 (ProbeSet 11739960_a_at) / RFU SYPL1 (11715823_x_at) / Fold change /veh SYPL1 (11715823_x_at) / RFU IGFBP7 (11715501_s_at) / Fold change /veh IGFBP7 (11715501_s_at) / RFU REEP3 (11722064_at) / Fold change /veh REEP3 (11722064_at) / RFU IGLL1 (11728026_x_at) / Fold change /veh IGLL1 (11728026_x_at): dose or concentration left out as unconfirmed
Conditions: ProbeSet 11718569_a_at; LIST D

## Nc1ccc(-c2cccs2)cc1NC(=O)c1ccc2c(c1)cc(C1CC1)n2CCN1CCOCC1 [ACY-1035]
  Fold change vs veh, WIPF1: 0.95
